Measurements: patent US7628996B2, “Sterile immunogenic non-tumorigenic tumor cell compositions and methods” (priority 2002, dated 2009)
Several values for one entry are separate records, joined by “and”; a condition that tells them apart may be missing. Equal values may be shown once. Entries after “also recorded” stand apart in the source; their conditions may differ.

Legend:
Bacteriodes vulgatus = test: Short exposure of test microorganism to antibiotic; format: cell-based
Protocol: (§1) Appropriate test microorganisms were incubated with the antibiotic for varying periods of time and at 4° C. or 37° C. “Untreated” controls were incubated with HBSS. After completion of the treatment, the samples were assayed for bioburden by the membrane filtration method on Tryptic Soy agar containing 5% sheep blood (TSA-SB) and Sabouraud's dextrose medium (SAB).
Anaerobes are the predominant microorganisms in the colon. […] Lincomycin (Lincocin hydrochloride) (Sigma-Aldrich Co.) and Primaxin® were then tested against this anaerobe.

Enterococcus faecalis = test: Short exposure of test microorganism to antibiotic; format: cell-based; conditions: 12.5 to 50 μg/mL, one hour at 37° C.
Protocol: as §1
(§2) Two members of the quinolone class of antibiotics norfloxacin (Noroxin® (Merck & Co., Inc.)) and levofloxacin (Levaquin® (Ortho-McNeil)) also were evaluated. In preliminary experiments, norfloxacin was tested against Enterococcus faecalis and Pseudomonas aeruginosa.

Pseudomonas aeruginosa = test: Short exposure of test microorganism to antibiotic; format: cell-based; conditions: 12.5 to 50 μg/mL, one hour at 37° C.
Protocol: as §1, §2

Candida albicans = test: Short exposure of test microorganism to anti-mycotic; format: cell-based
Protocol: as §1
Amphotericin B was selected for action on yeasts and mold.

colon tumor cells = test: Disinfection of trimmed colon tumor pieces before dissociation: tumor cell viability, yield, potency; format: cell-based, human; conditions: treatment of trimmed tumor pieces, relative to control
From the text: For pathological staging purposes, the pathologist cuts the tumor to determine the deepest margin of penetration. Consequently, the excised tumors are comprised of several pieces of tumor tissue. The tissue was dissected to remove extraneous non-tumor and necrotic tissue. The trimmed tumor pieces were further subdivided to achieve homogeneity and divided into two to four groups for processing according to the experimental design. The tissue was divided as evenly as possible among the samples, taking care to make the tumor pieces in the experimental groups appear as identical as possible. The trimmed pieces were added to a tube containing 40 mL of disinfectant and then treated by shaking for 2 minutes at 200 rpm on a rotating platform shaker. […] The amount of tumor dissociated was determined by weighing the tumor fragments prior to dissociation and after completion of the dissociation cycles. […]
Tumor sample 500-0051-KNO was washed with saline, a second wash with 1% Triton X-100 and followed by three additional saline washes (see Example 1). […] In order to maximize the possible bioburden in the tumors and present a greater challenge to the disinfectant, the following modifications to the procedure were made: the tumors were minimally washed (one 500 mL quantity) prior to pathological dissection; the dissociations were performed in the absence of gentamicin.

[1] = test system: bioburden of colon tumors; test: Disinfection of trimmed colon tumor pieces before dissociation: bioburden of tumor cell suspension; format: cell-based; conditions: for effect of disinfectant on bioburden (in words): treatment of trimmed tumor pieces, concentrations tested; for Bioburden SAB-CM Aerobic / Bioburden TSA-SB Aerobic / Bioburden TSA-SB Anaerobic: per patient tumor sample
From the text: (§3) For pathological staging purposes, the pathologist cuts the tumor to determine the deepest margin of penetration. Consequently, the excised tumors are comprised of several pieces of tumor tissue. The tissue was dissected to remove extraneous non-tumor and necrotic tissue. The trimmed tumor pieces were further subdivided to achieve homogeneity and divided into two to four groups for processing according to the experimental design. The tissue was divided as evenly as possible among the samples, taking care to make the tumor pieces in the experimental groups appear as identical as possible. The trimmed pieces were added to a tube containing 40 mL of disinfectant and then treated by shaking for 2 minutes at 200 rpm on a rotating platform shaker. The trimmed tumor pieces were then washed three times with HBSS and then dissociated. The amount of tumor dissociated was determined by weighing the tumor fragments prior to dissociation and after completion of the dissociation cycles. After dissociation, the tumor cell suspension was sampled for percent tumor cell viability, number of viable tumor cells, tumor cell potency and bioburden. The yield was defined as the number of viable tumor cells obtained per gram of tumor that was actually dissociated. The bioburden was normalized to CFU/10^7 viable tumor cells, approximately one dose of product.
(§4) Tumor sample 500-0051-KNO was washed with saline, a second wash with 1% Triton X-100 and followed by three additional saline washes (see Example 1). The resultant bioburden was below the limit of detection of the assay. In order to evaluate the ability of a disinfectant to remove bioburden, one to two logs of bioburden must be detectable in the control sample. In order to maximize the possible bioburden in the tumors and present a greater challenge to the disinfectant, the following modifications to the procedure were made: the tumors were minimally washed (one 500 mL quantity) prior to pathological dissection; the dissociations were performed in the absence of gentamicin.

[2] = test system: endogenous bioburden present in colon tumors; test: Additional one hour incubation with antibiotics after enzymatic dissociation: bioburden; format: cell-based; conditions: additional incubation vs no incubation; per tumor
Protocol: as §1
For the first four tumors processed, a portion of the cell suspension dissociated in the presence of gentamicin or gentamicin with other antibiotics was also incubated for an additional hour (after completion of the dissociation) with the same antibiotic(s). This additional incubation was evaluated for increased reduction of bioburden.

microbial growth = test: Disinfection of trimmed colon tumor pieces before dissociation: sterility in TSB and FTG broth; format: cell-based; parameters: key: Pass (P) (no evidence of microbial growth); Fail (F) (Microbial growth); conditions: per patient tumor sample
From the text: as §3, §4

[3] = 0.4% Clorpactin, 2 successive 2 min treatments
[4] = 0.4% Clorpactin, one 2 min treatment

`Cc1ncc([N+](=O)[O-])n1CCO` [Flagyl] was tested. Which “effectiveness against the anaerobe (in words)” value (Bacteriodes vulgatus; 2.5 and 5 μg/mL, aerobic incubation conditions) did it give?
Its value is “ineffectual”.

Which results are given for `CCn1cc(C(=O)O)c(=O)c2cc(F)c(N3CCNCC3)cc21` [Norfloxacin, norfloxacin]?
effectiveness (in words) (Enterococcus faecalis): ineffectual; effectiveness (in words) (Pseudomonas aeruginosa): highly effective

With `C[C@@H]1[C@H](O)[C@@H](C)/C=C/C=C/C=C/C=C/C=C/C=C/C=C/[C@H](O[C@@H]2O[C@H](C)[C@@H](O)[C@H](N)[C@@H]2O)C[C@@H]2O[C@](O)(C[C@@H](O)C[C@@H](O)[C@H](O)CC[C@@H](O)C[C@@H](O)CC(=O)O[C@H]1C)C[C@H](O)[C@H]2C(=O)O` [amphotericin B] as the compound, how does the “reduction in colonies (in words)” value (Candida albicans; 0.5 to 1.0 μg/mL, observed one day after treatment) read?
Its value is “Marked reduction in colonies”.

And the “inhibition (in words)” value (Candida albicans; observed after 8 days in culture, higher concentration)?
Its value is “only slight inhibition”.

What does the source list for `CCC[C@@H]1C[C@@H](C(=O)N[C@@H]([C@H]2O[C@H](SC)[C@H](O)[C@@H](O)[C@H]2O)[C@@H](C)O)N(C)C1` [lincomycin, Lincomycin]?
reduction of the anaerobe (Bacteriodes vulgatus; extended conditions: 40 minutes at 37° C., 4° C. for 60 minutes, additional 60 minutes at 37° C.): one log reduction; reduction of the anaerobe (Bacteriodes vulgatus; overnight at 4° C., Primaxin 100 μg/mL, lincomycin up to 150 μg/mL): no effect

Which “effect of disinfectant on tumor cell yield (in words)” value (colon tumor cells) does the source give for `OCl` [sodium hypochlorite] here?
Its value is “significantly reduced the tumor cell yield relative to the control”.

What about the “effect of disinfectant on bioburden (in words)” value [1] of the same compound?
The value was “effective in reducing the bioburden”.

Which results are given for gentamicin?
Percent Reduction of Bioburden, SAB medium [2]: 80%; Percent Reduction of Bioburden, TSA medium [2]: 41%

What does the source list for sodium oxychlorosene [Clorpactin ®]?
Sterility FTG (microbial growth; [3]): F and P; Sterility TSB (microbial growth; [3]): F; Sterility FTG (microbial growth; [4]): F (3×) and P (3×); Sterility TSB (microbial growth; [4]): F (4×) and P (2×); Sterility FTG (microbial growth; 0.8% Clorpactin, 2 min): F; Sterility TSB (microbial growth; 0.8% Clorpactin, 2 min): F; Bioburden SAB-CM Aerobic [1, 3]: ≦2 CFU/107 Cells; Bioburden TSA-SB Aerobic [1, 3]: ≦2 CFU/107 Cells; Bioburden TSA-SB Anaerobic [1, 3]: 3800 CFU/107 Cells and ≦2 CFU/107 Cells; % Reduction of bioburden TSA-SB Aerobic ([1]; 0.4% Clorpactin, 2 successive 2 min treatments, vs control of same tumor): (99%); two successive two minute treatments versus single treatment (in words) ([1]; 0.4% Clorpactin, fresh disinfectant each time): No advantage for two treatments was observed; Bioburden SAB-CM Aerobic [1, 4]: 207 CFU/107 Cells and ≦11 CFU/107 Cells and ≦23 CFU/107 Cells and ≦2 CFU/107 Cells (2×) and <49 CFU/107 Cells; Bioburden TSA-SB Aerobic [1, 4]: 3910 CFU/107 Cells and <11 CFU/107 Cells and <23 CFU/107 Cells and 2 CFU/107 Cells and ≦2 CFU/107 Cells and <49 CFU/107 Cells; Bioburden TSA-SB Anaerobic [1, 4]: 3890 CFU/107 Cells and 343 CFU/107 Cells and <23 CFU/107 Cells and 294 CFU/107 Cells and ≦2 CFU/107 Cells and <49 CFU/107 Cells; Bioburden SAB-CM Aerobic ([1]; 0.8% Clorpactin, 2 min): 4452 CFU/107 Cells and ≦13 CFU/107 Cells; Bioburden TSA-SB Aerobic ([1]; 0.8% Clorpactin, 2 min): 7100 CFU/107 Cells and <13 CFU/107 Cells; Bioburden TSA-SB Anaerobic ([1]; 0.8% Clorpactin, 2 min): 8870 CFU/107 Cells and 1364 CFU/107 Cells; % Reduction of bioburden TSA-SB Anaerobic ([1]; 0.8% Clorpactin, 2 min, vs control of same tumor): (92%); effect on bioburden (in words) ([1]; Clorpactin at 0.8% compared with 0.4%): no further reduction in bioburden was observed; effect of disinfectant on bioburden (in words) [1]: reduced the bioburden in the sample; also recorded: bioburden reductions to almost three orders of magnitude
